Data on eight compounds can be found in US8519184B2, “Synthesis of rare earth metal extractant” (Shin-Etsu Chemical Co., Ltd., priority 2010, dated 2013).

The nature of data set [1]: Extraction/separation test (solvent extraction, Nd/Pr). The note with it: 20° C.
Procedure: An extraction/separation test was performed. […] The reaction product solution was diluted with hexane to form an organic solution having a DODGAA concentration of 0.3 mol/L, which might become an organic phase.
An extraction/separation test was performed. The concentration of DODGAA in the reaction product solution was computed from the amounts of reactants and synthesis medium. The reaction product solution was diluted with hexane to form an organic solution having a DODGAA concentration of 0.3 mol/L, which might become an organic phase. […]
An aqueous solution containing mixed rare earth metals was prepared by dissolving praseodymium chloride and neodymium chloride in water in a molar ratio Pr:Nd of 1:1 and a concentration (mol/L) of Pr+Nd as shown in Table 4 to form an aqueous solution which might become an aqueous phase. […] The concentrations of praseodymium and neodymium in the aqueous phase and the back-extracted aqueous hydrochloric acid solution were measured by an ICP atomic emission spectrometer ICP-7500 (Shimadzu Corp.).
Data set [2] in a line: Extractant state of reaction product. The note with it: Table 2; reaction product at varied B/A (dioctylamine/diglycolic anhydride). It is filed as physicochemical. On the procedure: An amount (designated A in Table 2) of diglycolic anhydride was suspended in 40 mL of hexane. Separately, an amount (designated B in Table 2) of dioctylamine was dissolved in 10 mL of hexane. With stirring, the dioctylamine solution was added dropwise to the diglycolic anhydride suspension. Stirring was continued at room temperature until it was confirmed that the solution became clear as a result of reaction of diglycolic anhydride. The reaction product was obtained in hexane solution. Table 2 also reports a ratio B/A that is a ratio of the amount (B mmol) of dioctylamine to the amount (A mmol) of diglycolic anhydride.
An aqueous solution containing mixed rare earth metals was prepared by dissolving praseodymium chloride and neodymium chloride in water in a molar ratio Pr:Nd of 1:1 and a concentration of 0.1 mol/L of Pr+Nd to form an aqueous solution, which might become an aqueous phase. A separatory funnel was charged with 100 mL of the organic solution and 100 mL of the aqueous solution and shaken at 20° C. for about 20 minutes to effect extraction. After equilibrium was reached, the liquid was allowed to separate into organic and aqueous phases. A separatory funnel was charged with 100 mL of the thus separated organic phase and 100 mL of 5N hydrochloric acid and shaken at 20° C. for about 20 minutes whereby the rare earth element once extracted into the organic phase was back-extracted into the aqueous hydrochloric acid solution. The concentrations of praseodymium and neodymium in the aqueous phase and the back-extracted aqueous hydrochloric acid solution were measured by an ICP atomic emission spectrometer ICP-7500 (Shimadzu Corp.).

For data set [3] the following is noted: cited from earlier work.
Where [4] appears, read: Table 1, DODGAA 0.3 mol/L in hexane organic phase, Pr+Nd 0.1 mol/L aqueous, about 20 minutes.

≈ marks a conversion by molar mass, not a printed value.

Take `CCCCCCCCN(CCCCCCCC)C(=O)COCC(=O)O` [Comparative Example 1, N,N-dioctyl-3-oxapentane-1,5-amic acid]: the Nd/Pr separation factor entry in data set [1] (setting [4]) was “satisfactory”.

For `CCCCCCCCN(CCCCCCCC)C(=O)COCC(=O)O` [Comparative Example 2, N,N-dioctyl-3-oxapentane-1,5-amic acid], the Extractant state result in data set [2] is listed as “liquid”.

For `CCCCCCCCN(CCCCCCCC)C(=O)COCC(=O)O` [DODGAA, N,N-dioctyl-3-oxapentane-1,5-amic acid], in data set [3], the solubility in water is 6.2 µM (≈ 2.22 µg/mL).

Regarding `CCCCCCCCN(CCCCCCCC)C(=O)COCC(=O)O` [Example 1, N,N-dioctyl-3-oxapentane-1,5-amic acid], in data set [1] (setting [4]), the Nd/Pr separation factor result is “satisfactory”.

For `CCCCCCCCN(CCCCCCCC)C(=O)COCC(=O)O` [Example 2, N,N-dioctyl-3-oxapentane-1,5-amic acid], the Extractant state entry in data set [2] is on record as “liquid”.

As for `CCCCCCCCN(CCCCCCCC)C(=O)COCC(=O)O` [Example 3, N,N-dioctyl-3-oxapentane-1,5-amic acid], the Nd/Pr separation factor result in data set [1] (Table 2, varied B/A, DODGAA 0.3 mol/L in hexane, Pr+Nd 0.1 mol/L) is given as “satisfactory”. Further, the Extractant state result in data set [2] is given as “liquid”.

`CCCCCCCCN(CCCCCCCC)C(=O)COCC(=O)O` [Example 4, N,N-dioctyl-3-oxapentane-1,5-amic acid]: the Extractant state result in data set [2] is on record as “liquid”.

With `CCCCCCCCN(CCCCCCCC)C(=O)COCC(=O)O` [Example 5, N,N-dioctyl-3-oxapentane-1,5-amic acid], in data set [2], the Extractant state entry is recorded as “solid”.
